We go through 28 compounds from patent US9115101B2 (Genentech, Inc., priority 2012, dated 2015).

The target of the test is T1, RORc ligand binding domain (Homo sapiens, UniProt P51449).
T1 construct: host or cells: E. coli
T1 sequence (P51449 269-508 limits assumed): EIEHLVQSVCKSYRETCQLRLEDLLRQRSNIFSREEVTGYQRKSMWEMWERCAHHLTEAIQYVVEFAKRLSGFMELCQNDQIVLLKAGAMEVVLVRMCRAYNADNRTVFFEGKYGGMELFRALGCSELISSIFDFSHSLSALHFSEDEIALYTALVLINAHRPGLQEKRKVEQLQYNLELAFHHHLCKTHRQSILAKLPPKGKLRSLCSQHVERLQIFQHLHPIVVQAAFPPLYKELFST
Nature of the test: In Vitro RORc Ligand Binding Assay (25-[3H]hydroxycholesterol radioligand filtration). The note with it: read-out: RORc IC50.

[1] abbreviates: In Vitro RORc Ligand Binding Assay, Table 4.

Where two headings read alike, the source gives them in different places.

In general, IC50 refers to the concentration at which inhibition is half-maximal. As for `COC(=O)[C@H]1CN(C(C)=O)CCN1c1ccc(CN2[C@@H](C)CCC(c3ccccc3)S2(=O)=O)c(F)c1` (stereo partly drawn) [Example 416, (R)-4-Acetyl-1-[3-fluoro-4-((3S)-methyl-1,1-dioxo-6-phenyl-[1,2]thiazinan-2-ylmethyl)-phenyl]-piperazine-2-carboxylic acid methyl ester], the IC50 is 0.368 µM.

Take `C[C@H]1CCC(c2ccccc2)S(=O)(=O)N1Cc1ccc(N2CCC(C#N)CC2)cc1F` (single isomer, unassigned) [Example 86]: the IC50 under setting [1] was 0.015 µM.

`C[C@H]1CCC(c2ccccc2)S(=O)(=O)N1Cc1ccc(OCC2CCOC2)cc1` (stereo partly drawn) [Example 430, (3S)-Methyl-6-phenyl-2-[4-(tetrahydro-furan-3-ylmethoxy)-benzyl]-[1,2]thiazinane 1,1-dioxide]: the IC50 was 0.559 µM.

For the compound `CC(=O)N1CCN(c2ccc(CN3CCOCC(c4ccccc4)S3(=O)=O)c(F)c2)CC1` (stereo not shown) [Example 21, 1-{4-[4-(4,4-Dioxo-3-phenyl-[1,4,5]oxathiazepan-5-ylmethyl)-3-fluoro-phenyl]-piperazin-1-yl}-ethanone], the IC50 under setting [1] was 0.209 µM.

Take `O=S1(=O)C(c2ccccc2)CC2(CC2)CN1Cc1ccc(N2CCC(n3cnnc3)CC2)cc1F` (single isomer, unassigned) [Example 259, 5-[2-Fluoro-4-(4-[1,2,4]triazol-4-yl-piperidin-1-yl)-benzyl]-7-phenyl-6-thia-5-aza-spiro[2.5]octane 6,6-dioxide]: the IC50 under setting [1] was 0.057 µM.

In the case of `CC(=O)N1CCN(c2ccc(CN3[C@@H](C)CCC(c4ccccc4)S3(=O)=O)cn2)CC1` (single isomer, unassigned) [Example 43], under setting [1], the IC50 was found to be 1.5 µM.

Turning to `CC(=O)N1CC2(C1)CN(C(=O)c1ccc(CN3[C@@H](C)CCC(c4ccccc4)S3(=O)=O)cc1)C2` (stereo partly drawn) [Example 366, 1-{6-[4-((3S)-Methyl-1,1-dioxo-6-phenyl-[1,2]thiazinan-2-ylmethyl)-benzoyl]-2,6-diaza-spiro[3.3]hept-2-yl}-ethanone], under setting [1], the IC50 is 5.28 µM.

For the compound `C[C@H]1CCC(c2ccccc2)S(=O)(=O)N1Cc1ccc(OC2CCN(S(C)(=O)=O)CC2)cc1F` (single isomer, unassigned) [Example 32], the IC50 under setting [1] was determined as 0.017 µM.

In the case of `COC(=O)[C@@H]1CN(C(C)=O)CCN1c1ccc(CN2[C@@H](C)CCC(c3ccccc3)S2(=O)=O)c(F)c1` (stereo partly drawn) [Example 392, (S)-4-Acetyl-1-[3-fluoro-4-((3S)-methyl-1,1-dioxo-6-phenyl-[1,2]thiazinan-2-ylmethyl)-phenyl]-piperazine-2-carboxylic acid methyl ester], the IC50 under setting [1] came to 0.013 µM.

For `CC(=O)N1CCN(c2ccc(CN3CCOCC(c4ccccc4)S3(=O)=O)c(F)c2)CC1` (single isomer, unassigned) [Example 23, 1-{4-[4-(4,4-Dioxo-3-phenyl-[1,4,5]oxathiazepan-5-ylmethyl)-3-fluoro-phenyl]-piperazin-1-yl}-ethanone], the IC50 under setting [1] was determined as 0.045 µM.

In the case of `C[C@H]1CCC(c2ccccc2)S(=O)(=O)N1Cc1ccc(N2CCn3cncc3C2)cc1F` (single isomer, unassigned) [Example 155], the 50% inhibitory concentration (IC50) under setting [1] stood at 0.175 µM.

With `C[C@H]1CCC(c2ccccc2)S(=O)(=O)N1Cc1ccc(NC2CCC(C#N)CC2)cc1F` (stereo partly drawn) [Example 101, 4-[3-Fluoro-4-((3S)-3-methyl-1,1-dioxo-6-phenyl-[1,2]thiazinan-2-ylmethyl)-phenylamino]-cyclohexanecarbo-nitrile], the IC50 under setting [1] came to 0.018 µM.

Take `C[C@H]1CCC(c2ccccc2)S(=O)(=O)N1Cc1ccc(N2CCCN(C(=O)CC#N)CC2)cc1F` (single isomer, unassigned) [Example 83]: the IC50 under setting [1] turned out to be 0.213 µM.

As for `CS(=O)(=O)N1CCC(Nc2ccc(CN3CC4(CC4)CC(c4ccccc4)S3(=O)=O)c(F)c2)CC1` (single isomer, unassigned) [Example 253, 5-(2-fluoro-4-((1-(methylsulfonyl)piperidin-4-yl)amino)benzyl)-7-phenyl-6-thia-5-azaspiro[2.5]octane 6,6-dioxide], the IC50 under setting [1] is 0.007 µM.

Take `CC(=O)N1CCN(c2ccc(CN3[C@@H](C)CCC(c4ccccc4)S3(=O)=O)c(F)c2)CC1` (single isomer, unassigned) [Example 18]: under setting [1], the IC50 was 0.047 µM.

Turning to `CC1CC(=O)C=C(N2CCN(c3ccc(CN4[C@@H](C)CCC(c5ccccc5)S4(=O)=O)c(F)c3)CC2)C1` (stereo partly drawn) [Example 186, 3-{4-[3-Fluoro-4-((3S)-3-methyl-1,1-dioxo-6-phenyl-[1,2]thiazinan-2-ylmethyl)-phenyl]-piperazin-1-yl}-5-methyl-cyclohex-2-enone], the IC50 under setting [1] was 0.179 µM.

As to `C[C@H]1CCC(c2ccccc2)S(=O)(=O)N1Cc1ccc(N2CCC(c3ncon3)CC2)cc1F` (stereo partly drawn) [Example 235, 2-[2-Fluoro-4-(4-[1,2,4]oxadiazol-3-yl-piperidin-1-yl)-benzyl]-(3S)-methyl-6-phenyl-[1,2]thiazinane 1,1-dioxide], the IC50 under setting [1] amounted to 0.04 µM.

Consider `C[C@H]1CCC(c2ccccc2)S(=O)(=O)N1Cc1ccc(N2CC3(CCOC3)C2)cc1F` (single isomer, unassigned) [Example 95], for which the IC50 under setting [1] amounted to 0.093 µM.

Regarding `CC(=O)N1CCN(c2ccc(CN3C4CC(C4)CC(c4ccccc4)S3(=O)=O)c(F)c2)CC1` (single isomer, unassigned) [Example 300, 1-{4-[4-(3,3-Dioxo-4-phenyl-3-thia-2-aza-bicyclo[4.1.1]oct-2-ylmethyl)-3-fluoro-phenyl]-piperazin-1-yl}-ethanone], the IC50 under setting [1] is 0.044 µM.

On to `CC(=O)N1CCN(c2cnc(CN3[C@@H](C)CCC(c4ccccc4)S3(=O)=O)cn2)CC1` (single isomer, unassigned) [Example 179], for which the IC50 under setting [1] is 0.942 µM.

As for `CC(=O)N1CCN(c2ccc(CN3[C@@H](C)CCC(c4ccccc4)S3(=O)=O)c(Cl)c2)CC1` (stereo partly drawn) [Example 180, 1-{4-[3-Chloro-4-((3S)-3-methyl-1,1-dioxo-6-phenyl-[1,2]thiazinan-2-ylmethyl)-phenyl]-piperazin-1-yl}-ethanone], under setting [1], the IC50 amounted to 1.58 µM.

As for `CC(=O)N1CCN(c2ccc(CN3CCCC(c4ccccc4)S3(=O)=O)c(F)c2)CC1` (single isomer, unassigned) [Example 2], the half-maximal inhibitory concentration (IC50) under setting [1] turned out to be 0.157 µM.

`CC(=O)N1CCN(c2ccc(CN3C[C@H](C)OCC(c4ccccc4)S3(=O)=O)c(F)c2)CC1` (single isomer, unassigned) [Example 29]: the IC50 under setting [1] was 0.024 µM.

With `CC(=O)N1CCN(c2ccc(CN3[C@@H](C)CCC(c4ccccc4)S3(=O)=O)cc2Cl)CC1` (single isomer, unassigned) [Example 164], the IC50 under setting [1] worked out at 0.115 µM.

Turning to `C[C@H]1CCC(c2ccccc2)S(=O)(=O)N1Cc1ccc(N2CC3(CCOCC3)C2)cc1F` (single isomer, unassigned) [Example 84], the IC50 under setting [1] worked out at 0.023 µM.

Turning to `CC(=O)N1CCN(c2ccc(CN3[C@H](C)CCCC(c4ccccc4)S3(=O)=O)c(F)c2)CC1` (single isomer, unassigned) [Example 319], the IC50 under setting [1] was 0.008 µM.

As for `CC(=O)N1CCN(c2ccc(CN3[C@@H](C)CCC(c4cccc(Cl)c4)S3(=O)=O)c(F)c2)CC1` (single isomer, unassigned) [Example 200], under setting [1], the IC50 came out at 0.017 µM.

In the case of `C[C@H]1CCC(c2ccccc2)S(=O)(=O)N1Cc1ccc(N2CCN(C(=O)CC#N)CC2)cc1F` (single isomer, unassigned) [Example 71], the IC50 under setting [1] came to 0.041 µM.
